Measurements reported in patent publication US5230998A, “Method for the prescreening of drugs targeted to the V3 hypervariable loop of the HIV-1 envelope glycoprotein gp 120” (priority 1991, dated 1993).

Key:
[1] = system: gp120 expressed on the surface of HIV-1-infected cells; conditions: literature; cited from earlier work
[2] = system: HIV-1 reverse transcriptase; conditions: literature; cited from earlier work
[3] = target: T1, HIV-1 gp120 V3 hypervariable loop (Human immunodeficiency virus type 1 group M subtype B, UniProt P03375); assay: biochemical; assay type: binding; conditions: excess of serum proteins in medium
T1 construct: Polystyrene plates coated with recombinant gp120 and gp160, respectively; purchased American Bio-Technologies, Inc., Cambridge, Mass; host or cells: baculovirus expression system
Experimental: Wells of 96 well polystyrene plates (Immulon 2, Dynatech Laboratories, Inc., Chantilly, Va.) were coated with synthetic peptides (200 μl; 20μg/ml in 0.1 M Tris-HCl, pH 8.8) overnight at 20° C. The peptides were from the sequence of HIV-1, clone BH 10 envelope glycoproteins gp120 and gp41 (Neurath, A. R., Strick, N., and Lee, E. Y. S. (1990), "B-cell Epitope Mapping of Human Immunodeficiency virus (HIV-1) Envelope Glycoprotein with Long (19 to 36-residue) Synthetic Peptides", J. Gen. Virol., 71., 85-95) and from V3 hypervariable loops of 21 distinct HIV-1 isolates (clones) Neurath, A. R., and Strick, N., (1990), "Confronting the Hypervariability of an Immunodominant Epitope Eliciting Virus Neutralizing Antibodies from the Envelope Glycoprotein of the Human Immunodeficiency Virus Type 1 (HIV-1)", Molec. Immunol., 27, 539-549. The latter peptides corresponded to full-length V3 loops generated by disulfide bonds between N- and C- terminal cysteine residues. After washing with 0.14 M NaCl, 0.01 M Tris, 0.02% NaN3 (TS), the wells were postcoated with a mixture of bovine serum albumin (BSA) and gelatine (10 and 2.5 mg/ml, respectively) in TS. BSA was omitted from the postcoating solution for RIA tests in which antibodies to ATA were used. Polystyrene plates coated with recombinant gp120 and gp160, respectively, (500 ng/well; from American Bio-Technologies, Inc., Cambridge, Mass. and MicroGeneSys, Inc., West Haven, Conn., respectively) were also used for RIA and ELISA tests.
To define sites on gp120/gp41 reacting with ATA, the inhibitory effect of this compound was studied by RIA tests using gp120- and gp160-coated wells, respectively, and antisera (final dilutions 1:150) against synthetic peptides from the entire sequence of gp120/gp41 of HIV-1 BH 10. The preparation and biological properties of these antisera were described elsewhere (Neurath et al., (1990), J. Gen. Virol., 71, 85-95). Each of the antisera was diluted in a mixture of fetal bovine serum and goat serum (9:1) containing 0.1% Tween 20, adjusted to pH 8. ATA (final concentration 50 μg/ml) was added in one set of assays, but was omitted from a parallel set. After incubation overnight at 25° C., the plates were washed with TS. Attached rabbit IgG was detected using ^125 I-labeled anti-rabbit IgG, as described before (Neurath et al., 1990, J. Gen. Virol., 71, 85-95). Similarly, the inhibitory effect of ATA on the reaction of peptides derived from gp120/gp41 and of peptides derived from V3 hypervariable loops from gp120 of distinct HIV-1 isolates with the respective homologous anti-peptide antisera was studied. In the latter case, antisera were diluted 1:1,000 for the assays.
(§1) The inhibitory effect of ATA and of other compounds on the reaction between antibodies with predetermined specificity and gp120 (or synthetic peptides derived from it) was determined from the formula: [formula] An analogous formula was used to calculate the percentage of inhibition from optical density readings resulting from ELISA tests.
Chemicals other than ATA were screened for inhibitory activity essentially as described above. […] Chemicals with inhibitory activity established by the respective immunoassays were screened further for antiviral activity.
Commercially available ATA is a mixture of monomers and polymers of distinct molecular masses (Gonzalez et al., (1979) Biochem. Biophys. Acta, 562, 534-545); Cushman et al., (1991), J. Chem., 34, 329-337). The monomers [molecular mass (M.W.)=422.4 daltons] were separated from the polymers. ATA (20 mg/ml in the form of free acid neutralized with 0.4 M NaOH) was dialyzed against H2 O in a dialysis membrane with a molecular mass cutoff of 500 daltons.

[4] = system: CD4 receptor; conditions: literature; cited from earlier work
[5] = system: HIV-1; conditions: literature; cited from earlier work
[6] = system: V3 hypervariable loop peptides from gp120 from 21 distinct HIV-1 isolates (clones); assay: Inhibition of the reaction of V3 hypervariable loop peptides from 21 HIV-1 isolates with homologous anti-peptide antisera; assay type: binding; conditions: 21 HIV-1 isolates (clones); antisera 1:1,000; FIG. 7A, 7B
From the text: FIGS. 7A and 7B are bar graphs depicting the inhibitory effect of deuteroporphyrin IX,2,4 (4,2) hydroxyethylvinyl (FIG. 7A) and of meso-tetra(4-carboxyphenyl)porphine (FIG. 7B) on the reaction of full-length V3 hypervariable loop peptides from gp120 from 21 distinct HIV-1 isolates (clones) with homologous anti-peptide antisera. Peptide coated wells of polystyrene plates were reacted in the presence and absence of the inhibitory compounds with the respective rabbit antisera diluted 1:1,000, and the attachment of rabbit IgG was subsequently determined using ^125 I-labeled anti-rabbit IgG. […]
(§2) To define sites on gp120/gp41 reacting with ATA, the inhibitory effect of this compound was studied by RIA tests using gp120- and gp160-coated wells, respectively, and antisera (final dilutions 1:150) against synthetic peptides from the entire sequence of gp120/gp41 of HIV-1 BH 10. […] Attached rabbit IgG was detected using ^125 I-labeled anti-rabbit IgG, as described before (Neurath et al., 1990, J. Gen. Virol., 71, 85-95). […]
as §1

[7] = system: HIV-1; conditions: literature; cited from earlier work; remark: listed apart in the source
[8] = system: gp120 V3 hypervariable loop; conditions: 20-fold excess over gp120, absence of other proteins; cited from earlier work
[9] = system: gp120 V3 hypervariable loop; assay: Binding of gp120 to monoclonal antibodies specific for the V3 hypervariable loop in the absence of other proteins; parameters: species or system HIV-1; conditions: 20-fold excess over gp120, absence of other proteins
From the text: The inhibitory effect of dextran sulfate on gp120-antibody binding under these conditions was confirmed. The apparently contradictory results concerning binding of dextran sulfate to gp120 obtained by different methods can probably be explained by differences in equilibrium constants defining the binding reaction of gp120 with ATA and dextran sulfate, respectively. […] The relatively weak binding of dextran sulfate to the V3 hypervariable loop may contribute to the ineffectiveness of this substance in inhibiting HIV-1 replication in vivo (Mitsuya et al., (1990), Science, 249, 1533-1544).

[10] = target: T2, V3 peptide from HIV-1 SC (Human immunodeficiency virus type 1 (SC ISOLATE), UniProt P05878); assay: Inhibition of the reaction of antibodies with the V3 peptide from HIV-1 SC (FIG. 7B); assay type: binding; conditions: as compared with HXB-2 and HXB-3 V3 peptides
T2 construct: cut from Env gp160
From the text: FIGS. 7A and 7B are bar graphs depicting the inhibitory effect of deuteroporphyrin IX,2,4 (4,2) hydroxyethylvinyl (FIG. 7A) and of meso-tetra(4-carboxyphenyl)porphine (FIG. 7B) on the reaction of full-length V3 hypervariable loop peptides from gp120 from 21 distinct HIV-1 isolates (clones) with homologous anti-peptide antisera. Peptide coated wells of polystyrene plates were reacted in the presence and absence of the inhibitory compounds with the respective rabbit antisera diluted 1:1,000, and the attachment of rabbit IgG was subsequently determined using ^125 I-labeled anti-rabbit IgG.
as §2, §1

[11] = system: HIV-1 isolates IIIB, MN, SF2 and RF; assay: Antiviral activity of porphyrin derivatives for distinct HIV-1 isolates in promonocytic U937 cells (FIG. 12A); assay type: cell-based
Experimental: (§3) FIG. 12A and FIG. 12B are graphs depicting antiviral activity of selected porphyrin derivatives for distinct HIV-1 isolates in T-lymphocytic (MT-2) (FIG. 12B) and a promonocytic (U937) (FIG. 12A) cell lines. […] Therefore, the antiviral activity against HIV-1 RF could not be tested in this cell line. Note that the higher the value of EC50, the less efficient is the drug for inhibiting HIV-1 replication.
(§4) Four of the porphyrin derivatives (see FIG. 12) were tested for their inhibiting activity and the replication of four distinct HIV-1 isolates: IIIB, MN, SF2 and RF in two different cell lines, U937 and MT-2.

[12] = system: HIV-1 isolates IIIB, MN, SF2 and RF; assay: Antiviral activity of porphyrin derivatives for distinct HIV-1 isolates in T-lymphocytic MT-2 cells (FIG. 12B); assay type: cell-based
Experimental: as §3, §4

T2 sequence (P05878 296-330): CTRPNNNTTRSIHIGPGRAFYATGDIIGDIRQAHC

Molecule | inhibition of the reaction of gp120 on infected cells with monoclonal anti-gp120 antibodies [1] | inhibition of HIV-1 reverse transcriptase [2] | reaction with the V3 hypervariable loop as determined by RIA (ELISA) tests [3] | other results
Cc1ccc(C(=O)Nc2ccc(S(=O)(=O)O)c3cc(S(=O)(=O)O)cc(S(=O)(=O)O)c23)cc1NC(=O)c1cccc(NC(=O)Nc2cccc(C(=O)Nc3cc(C(=O)Nc4ccc(S(=O)(=O)O)c5cc(S(=O)(=O)O)cc(S(=O)(=O)O)c45)ccc3C)c2)c1 [suramin, reference compound] | inhibit the reaction of gp120 expressed on the surface of HIV-1-infected cells with monoclonal anti-gp120 antibodies | inhibited the reverse transcriptase of HIV-1 | – | –
heparin | inhibit the reaction of gp120 expressed on the surface of HIV-1-infected cells with monoclonal anti-gp120 antibodies | – | – | –
Cc1cc(-c2ccc(/N=N/c3ccc4c(S(=O)(=O)O)cc(S(=O)(=O)O)c(N)c4c3O)c(C)c2)ccc1/N=N/c1ccc2c(S(=O)(=O)O)cc(S(=O)(=O)O)c(N)c2c1O [substance #28, Evans Blue] | inhibit the reaction of gp120 expressed on the surface of HIV-1-infected cells with monoclonal anti-gp120 antibodies | inhibited the reverse transcriptase of HIV-1 | did not react with the V3 hypervariable loop | inhibition of the interaction with CD4 receptor [4]: inhibited the interaction of the CD4 receptor for HIV-1
CC1=C/C(=C(\c2ccc(N)c(S(=O)(=O)[O-])c2)c2ccc(N)c(S(=O)(=O)O)c2)C=C(S(=O)(=O)[O-])C1=N.[Na+].[Na+] [substance #145, acid fuchsin] | – | inhibited the reverse transcriptase of HIV-1 | did not react with the V3 hypervariable loop | –
hemin [substance #13] | – | – | – | inhibition of HIV-1 replication / antiviral activity [5]: anti-HIV-1 activity
deuteroporphyrin IX, 2,4 (4,2) hydroxy-ethyl vinyl [substance #151] | – | – | – | inhibition of interaction between V3 hypervariable loop peptides and homologous antibodies [6]: inhibited the interaction between V hypervariable loop peptides and homologous antibodies corresponding to all 21 HIV-1 isolates (clones) tested
dextran sulfate | inhibit the reaction of gp120 expressed on the surface of HIV-1-infected cells with monoclonal anti-gp120 antibodies | – | did not react with the V3 hypervariable loop | inhibition of HIV-1 replication in vivo [7]: ineffectiveness; blocking of binding of gp120 to monoclonal antibodies [8]: blocked; inhibitory effect on gp120-antibody binding [9]: confirmed
pentosan polysulfate | inhibit the reaction of gp120 expressed on the surface of HIV-1-infected cells with monoclonal anti-gp120 antibodies | – | – | –
O=C(O)c1ccc(-c2c3nc(c(-c4ccc(C(=O)O)cc4)c4ccc([nH]4)c(-c4ccc(C(=O)O)cc4)c4nc(c(-c5ccc(C(=O)O)cc5)c5ccc2[nH]5)C=C4)C=C3)cc1 [substance #160, meso-tetra (4-carboxyphenyl) porphine] | – | – | – | inhibitory activity on the reaction of antibodies with the V3 peptide [10]: relatively low inhibitory activity; inhibition of HIV-1 replication in U937 cells [11]: most effective agent with broad specificity; inhibition of HIV-1 replication in MT-2 cells [12]: most effective agent with broad specificity; inhibition of interaction between V3 hypervariable loop peptides and homologous antibodies [6]: inhibited the interaction between V hypervariable loop peptides and homologous antibodies corresponding to all 21 HIV-1 isolates (clones) tested
